We go through 38 compounds from US9051290B2, “Biaryl phosphodiesterase inhibitors” (LEO PHARMA A/S, priority 2010, dated 2015).

Broadly, the IC50 is the concentration at which inhibition is half-maximal.

Human recombinant PDE4 (Genbank accession no NM—006203), sequence (Q08499 1-673 isoform Q08499-2): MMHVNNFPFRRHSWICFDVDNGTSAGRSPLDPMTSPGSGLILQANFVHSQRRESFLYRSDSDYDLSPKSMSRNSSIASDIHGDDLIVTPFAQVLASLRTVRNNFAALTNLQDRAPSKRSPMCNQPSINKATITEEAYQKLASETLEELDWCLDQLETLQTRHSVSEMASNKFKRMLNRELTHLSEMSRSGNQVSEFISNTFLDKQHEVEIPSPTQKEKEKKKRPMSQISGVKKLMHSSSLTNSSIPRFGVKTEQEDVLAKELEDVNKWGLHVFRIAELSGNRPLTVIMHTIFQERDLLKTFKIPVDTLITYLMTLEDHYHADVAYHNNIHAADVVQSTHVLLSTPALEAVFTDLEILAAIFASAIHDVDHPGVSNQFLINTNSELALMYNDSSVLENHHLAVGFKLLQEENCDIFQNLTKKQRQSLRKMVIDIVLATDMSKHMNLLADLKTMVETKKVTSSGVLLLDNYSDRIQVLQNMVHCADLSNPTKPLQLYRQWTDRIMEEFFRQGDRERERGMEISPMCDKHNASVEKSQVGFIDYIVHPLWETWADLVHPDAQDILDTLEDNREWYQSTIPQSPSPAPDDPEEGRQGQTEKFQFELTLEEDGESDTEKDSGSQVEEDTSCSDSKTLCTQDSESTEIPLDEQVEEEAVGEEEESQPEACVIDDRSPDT

This assay addresses Human recombinant PDE4 (Genbank accession no NM—006203) (Homo sapiens, UniProt Q08499). Briefly: PDE4 assay (SPA, cleavage of cAMP). The following applies: 1 hour incubation, test compound up to 10 μM, cAMP 1×10^−5M, read-out: PDE4 IC50 range. It is filed as biochemical. The method, then: Human recombinant PDE4 (Genbank accession no NM_006203) was incubated for 1 hour with the test compound at concentrations up to 10 μM, with cAMP (1×10^−5M), and with a low amount (0.021 MBq) of radioactively labelled cAMP. At the end of the incubation, the cleavage of the substrate was evaluated by the binding of the AMP product to SPA beads, which generate chemoluminescence when bound to the radioactive tracer. The AMP product inhibited the binding of the radioactive tracer to the beads, and the luminescent signal was competed.
The results were calculated as the molar concentrations resulting in 50% inhibition of the substrate cleavage compared to controls samples, and are expressed as a range of IC50 (M).
The compounds of the present invention were tested in the PDE4 assay.
`COc1ccc(-c2ccc3c(c2)COC3=O)c(OCc2cccc(C(=O)N(C)C)c2)c1OC` [Compound 140, 3-[2,3-Dimethoxy-6-(1-oxo-1,3-dihydro-isobenzofuran-5-yl)-phenoxymethyl]-N,N-dimethyl-benzamide]: the concentration for half-maximal inhibition (IC50) is less than 100 nM.
For `COc1ccc(-c2ccc3c(c2)COC3=O)c(OCc2ccc(S(N)(=O)=O)cc2)c1OC` [Compound 141, 4-[2,3-Dimethoxy-6-(1-oxo-1,3-dihydro-isobenzofuran-5-yl)-phenoxymethyl]-benzenesulfonamide], the IC50 was less than 100 nM.
As to `COc1ccc(-c2ccc3c(c2)COC3=O)c(OCc2ccc(S(C)(=O)=O)cc2)c1OC` [Compound 142, 5-[2-(4-Methanesulfonyl-benzyloxy)-3,4-dimethoxy-phenyl]-3H-isobenzofuran-1-one], the IC50 was less than 100 nM.
As for `COc1ccc(-c2ccc3c(c2)COC3=O)c(OCc2cccc(S(C)(=O)=O)c2)c1OC` [Compound 143, 5-[2-(3-Methanesulfonyl-benzyloxy)-3,4-dimethoxy-phenyl]-3H-isobenzofuran-1-one], the IC50 was less than 100 nM.
As for `COc1ccc(-c2ccc3c(c2)COC3=O)c(OCc2cccc(S(N)(=O)=O)c2)c1OC` [Compound 144, 3-[2,3-Dimethoxy-6-(1-oxo-1,3-dihydro-isobenzofuran-5-yl)-phenoxymethyl]-benzenesulfonamide], the figure is less than 100 nM; as for `COc1ccc(-c2ccc3c(c2)COC3=O)c(OCc2cccc(S(=O)(=O)N(C)C)c2)c1OC` [Compound 145, 3-[2,3-Dimethoxy-6-(1-oxo-1,3-dihydro-isobenzofuran-5-yl)-phenoxymethyl]-N,N-dimethyl-benzenesulfonamide], less than 100 nM.
With `COc1ccc(-c2ccc3c(c2)COC3=O)c(OCc2cccc(C(N)=O)c2)c1OC` [Compound 146, 3-[2,3-Dimethoxy-6-(1-oxo-1,3-dihydro-isobenzofuran-5-yl)-phenoxymethyl]-benzamide], the IC50 is less than 100 nM.
Turning to `COc1ccc(-c2ccc3c(c2)CNC3=O)c(OCCC(C)C)c1OC` [Compound 147, 5-[3,4-Dimethoxy-2-(3-methyl-butoxy)-phenyl]-2,3-dihydro-isoindol-1-one], the IC50 was less than 100 nM.
To `COc1ccc(-c2ccc3c(c2)CNC3=O)c(OCC(C)(C)C)c1OC` [Compound 148, 5-[2-(2,2-Dimethyl-propoxy)-3,4-dimethoxy-phenyl]-2,3-dihydro-isoindol-1-one] belongs less than 100 nM.
To `COc1ccc(-c2ccc3c(c2)CNC3=O)c(OCC2CCC2)c1OC` [Compound 149, 5-(2-Cyclobutylmethoxy-3,4-dimethoxy-phenyl)-2,3-dihydro-isoindol-1-one] belongs less than 100 nM.
With `COc1ccc(-c2ccc3c(c2)CNC3=O)c(OCc2ccc(S(C)(=O)=O)cc2)c1OC` [Compound 150, 5-[2-(4-Methanesulfonyl-benzyloxy)-3,4-dimethoxy-phenyl]-2,3-dihydro-isoindol-1-one], the IC50 is less than 100 nM.
As for `COc1ccc(-c2ccc3c(c2)CNC3=O)c(OCC2(CO)COC2)c1OC` [Compound 151, 5-[2-(3-Hydroxymethyl-oxetan-3-ylmethoxy)-3,4-dimethoxy-phenyl]-2,3-dihydro-isoindol-1-one], the figure is 100 to 500 nM; as for `COc1ccc(-c2ccc3c(c2)CNC3=O)c(OCCC(C)(C)C)c1OC` [Compound 152, 5-[2-(3,3-Dimethyl-butoxy)-3,4-dimethoxy-phenyl]-2,3-dihydro-isoindol-1-one], less than 100 nM; as for `COc1ccc(-c2ccc3c(c2)CNC3=O)c(OCc2ccc(C(N)=O)cc2)c1OC` [Compound 153, 4-[2,3-Dimethoxy-6-(1-oxo-2,3-dihydro-1H-isoindol-5-yl)-phenoxymethyl]-benzamide], less than 100 nM.
Turning to `COc1ccc(-c2ccc3c(c2)CNC3=O)c(OCC(C)(C)CO)c1OC` [Compound 154, 5-[2-(3-Hydroxy-2,2-dimethyl-propoxy)-3,4-dimethoxy-phenyl]-2,3-dihydro-isoindol-1-one], the IC50 was less than 100 nM.
For the compound `CNC(=O)c1ccc(COc2c(-c3ccc4c(c3)CNC4=O)ccc(OC)c2OC)cc1` [Compound 155, 4-[2,3-Dimethoxy-6-(1-oxo-2,3-dihydro-1H-isoindol-5-yl)-phenoxymethyl]-N-methyl-benzamide], the IC50 is less than 100 nM.
For `COc1ccc(-c2ccc3c(c2)CNC3=O)c(OCc2ccc(C(=O)N(C)C)cc2)c1OC` [Compound 156, 4-[2,3-Dimethoxy-6-(1-oxo-2,3-dihydro-1H-isoindol-5-yl)-phenoxymethyl]-N,N-dimethyl-benzamide], the IC50 was less than 100 nM.
`COc1ccc(-c2ccc3c(c2)CNC3=O)c(OCc2cccc(C(=O)N(C)C)c2)c1OC` [Compound 157, 3-[2,3-Dimethoxy-6-(1-oxo-2,3-dihydro-1H-isoindol-5-yl)-phenoxymethyl]-N,N-dimethyl-benzamide]: the IC50 is less than 100 nM.
With `COc1ccc(-c2ccc3c(c2)CNC3=O)c(OCc2cccc(S(N)(=O)=O)c2)c1OC` [Compound 158, 3-[2,3-Dimethoxy-6-(1-oxo-2,3-dihydro-1H-isoindol-5-yl)-phenoxymethyl]-benzenesulfonamide], the IC50 was less than 100 nM.
Take `COc1ccc(-c2ccc3c(c2)CNC3=O)c(OCc2cccc(C(N)=O)c2)c1OC` [Compound 159, 3-[2,3-Dimethoxy-6-(1-oxo-2,3-dihydro-1H-isoindol-5-yl)-phenoxymethyl]-benzamide]: the IC50 fell in the range of 100 to 500 nM.
As to `COc1ccc(-c2ccc3c(c2)CNC3=O)c(OCc2cccc(S(C)(=O)=O)c2)c1OC` [Compound 160, 5-[2-(3-Methanesulfonyl-benzyloxy)-3,4-dimethoxy-phenyl]-2,3-dihydro-isoindol-1-one], the IC50 was less than 100 nM.
On to `COc1ccc(-c2ccc3c(c2)CNC3=O)c(OCc2ccc(S(N)(=O)=O)cc2)c1OC` [Compound 161, 4-[2,3-Dimethoxy-6-(1-oxo-2,3-dihydro-1H-isoindol-5-yl)-phenoxymethyl]-benzenesulfonamide], for which the IC50 was less than 100 nM.
Take `COC(=O)C(C)(C)COc1c(-c2cccc3c2CCC3=O)ccc(OC)c1OC` [Compound 162, 3-[2,3-Dimethoxy-6-(1-oxo-indan-4-yl)-phenoxy]-2,2-dimethyl-propionic acid methyl ester]: the IC50 was less than 100 nM.
With `COc1ccc(-c2cccc3c2CCC3=O)c(OCC2(C)COC2)c1OC` [Compound 163, 4-[3,4-Dimethoxy-2-(3-methyl-oxetan-3-ylmethoxy)-phenyl]-indan-1-one], the IC50 was less than 100 nM.
Regarding `COc1ccc(-c2cccc3c2COC3=O)c(OCC2(C)COC2)c1OC` [Compound 164, 4-[3,4-Dimethoxy-2-(3-methyl-oxetan-3-ylmethoxy)-phenyl]-3H-isobenzofuran-1-one], the IC50 fell in the range of 100 to 500 nM.
On to `COC(=O)C(C)(C)COc1c(-c2ccc3c(c2)CCC3=O)ccc(OC)c1OC` [Compound 165, 3-[2,3-Dimethoxy-6-(1-oxo-indan-5-yl)-phenoxy]-2,2-dimethyl-propionic acid methyl ester], for which the IC50 was less than 100 nM.
As to `COc1ccc(-c2cccc3c2CCC3=O)c(OCC(C)C)c1OC` [Compound 166, 4-(2-Isobutoxy-3,4-dimethoxy-phenyl)-indan-1-one], the IC50 was less than 100 nM.
As for `COc1ccc(-c2cc(OC)c(OC)c3c2CCC3=O)c(OCC(C)C)c1OC` [Compound 167, 4-(2-Isobutoxy-3,4-dimethoxy-phenyl)-6,7-dimethoxy-indan-1-one], the half-inhibitory concentration (IC50) fell in the range of 100 to 500 nM.
To `COc1ccc(-c2ccc(OC)c3c2CCC3=O)c(OCC(C)C)c1OC` [Compound 168, 4-(2-Isobutoxy-3,4-dimethoxy-phenyl)-7-methoxy-indan-1-one] belongs not below 500 nM.
On to `COc1ccc(-c2ccc3c(c2)CCC3=O)c(OCC(C)C)c1OC` [Compound 169, 5-(2-Isobutoxy-3,4-dimethoxy-phenyl)-indan-1-one], for which the IC50 was less than 100 nM.
As for `COc1ccc(-c2ccc3c(c2)COC3=O)c(OCC(C)C)c1OC` [Compound 170, 5-(2-Isobutoxy-3,4-dimethoxy-phenyl)-3H-isobenzofuran-1-one], the figure is less than 100 nM; as for `COc1ccc(-c2ccc3c(c2)C(C)N(C)C3=O)c(OCC(C)C)c1OC` (centres unmarked) [Compound 171, 5-(2-Isobutoxy-3,4-dimethoxy-phenyl)-2,3-dimethyl-2,3-dihydro-isoindol-1-one], not below 500 nM; as for `COc1ccc(-c2ccc3c(c2)CN(C)C3=O)c(OCC(C)C)c1OC` [Compound 172, 5-(2-Isobutoxy-3,4-dimethoxy-phenyl)-2-methyl-2,3-dihydro-isoindol-1-one], not below 500 nM.
For `COc1ccc(-c2cccc3c2CNC3=O)c(OCC(C)C)c1OC` [Compound 173, 4-(2-Isobutoxy-3,4-dimethoxy-phenyl)-2,3-dihydro-isoindol-1-one], the IC50 lay in the range of 100 to 500 nM.
As for `COc1ccc(-c2ccc3c(c2)CNC3=O)c(OCC(C)C)c1OC` [Compound 174, 5-(2-Isobutoxy-3,4-dimethoxy-phenyl)-2,3-dihydro-isoindol-1-one], the IC50 was less than 100 nM.
Regarding `COc1ccc(-c2cccc3c2COC3=O)c(OCC(C)C)c1OC` [Compound 175, 4-(2-Isobutoxy-3,4-dimethoxy-phenyl)-3H-isobenzofuran-1-one], the IC50 was less than 100 nM.
Regarding `COc1ccc(-c2ccc3c(c2)OCC3=O)c(OCC(C)C)c1OC` [Compound 176, 6-(2-Isobutoxy-3,4-dimethoxy-phenyl)-benzofuran-3-one], the IC50 fell in the range of 100 to 500 nM.
As to `COc1ccc(-c2cccc3c2CCC3=O)c(OCC2(CO)CC2)c1OC` [Compound 177, 4-[2-(1-Hydroxymethyl-cyclopropylmethoxy)-3,4-dimethoxy-phenyl]-indan-1-one], the IC50 was less than 100 nM.
